Test results from patent US6495688B2, “Deazapurine derivatives: a new class of CRF1 specific ligands” (Neurogen Corporation, priority 1995, dated 2002).
Structures can show the parent of a compound that is named as a salt.

How the values were obtained:
CRF receptors = target: T1, CRF receptors (Homo sapiens, UniProt P34998); assay: CRF receptor binding assay (125I-CRF displacement); settings: membrane preparation, 125I-CRF 100 pM, room temperature 2 hours
T1 sequence (P34998 24-415): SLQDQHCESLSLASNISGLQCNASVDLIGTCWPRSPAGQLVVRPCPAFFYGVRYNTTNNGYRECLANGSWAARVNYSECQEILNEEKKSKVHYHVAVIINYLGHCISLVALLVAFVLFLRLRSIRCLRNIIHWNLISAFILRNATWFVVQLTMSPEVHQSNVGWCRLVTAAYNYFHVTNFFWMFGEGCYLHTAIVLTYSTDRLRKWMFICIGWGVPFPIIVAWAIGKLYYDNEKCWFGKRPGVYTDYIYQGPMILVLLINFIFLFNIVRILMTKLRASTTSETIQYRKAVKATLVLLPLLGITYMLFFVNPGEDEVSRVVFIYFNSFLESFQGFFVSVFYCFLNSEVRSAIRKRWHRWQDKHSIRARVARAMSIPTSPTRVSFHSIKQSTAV
Description: Assay for CRF Receptor Binding Activity
CRF receptor binding was performed using a modified version of the assay described by Grigoriadis and De Souza (Biochemical, Pharmacological, and Autoradiographic Methods to Study Corticotropin-Releasing Factor Receptors. Methods in Neurosciences, Vol. 5, 1991). Membrane pellets containing CRF receptors were resuspended in 50 mM Tris buffer pH 7.7 containing 10 mM MgCl2 and 2 mM EGTA and centrifuged for 10 minutes at 48000 g. Membranes were washed again and brought to a final concentration of 1500 μg/ml in binding buffer (Tris buffer above with 0.1% BSA, 0.15 mM bacitracin and 0.01 mg/ml aprotinin.). For the binding assay, 100 ul of the membrane preparation was added to 96 well microtube plates containing 100 μl of ^125I-CRF (SA 2200 Ci/mmol, final concentration of 100 pM) and 50 μl of drug. Binding was carried out at room temperature for 2 hours. Plates were then harvested on a Brandel 96 well cell harvester and filters were counted for gamma emissions on a Wallac 1205 Betaplate liquid scintillation counter. Non specific binding was defined by 1 μM cold CRF. IC50 values were calculated with the non-linear curve fitting program RS/1 (BBN Software Products Corp., Cambridge, Mass.).

Row | melting point | IC50 (CRF receptors) | Compound
1 | 205 to 207 °C |  | CCCN(CC1CC1)c1ncnc2c(-c3c(C)cc(C)cc3C)cn(C)c12 (as salt: HCl) [Compound 1, N-cyclopropylmethyl-N-propyl-5-methyl-7-(2,4,6-trimethylphenyl)-5H-pyrrolo[3,2-d]pyrimidin-4-amine]
2 |  | 110 nM | CCCN(CC1CC1)c1ncnc2c(-c3c(C)cc(C)cc3C)cn(C)c12 [Compound 1, N-cyclopropylmethyl-N-propyl-5-methyl-7-(2,4,6-trimethylphenyl)-5H-pyrrolo[3,2-d]pyrimidin-4-amine]

Second part, the compound before the results:

Row | Compound | melting point | IC50 (CRF receptors)
3 | CCCCN(CC)c1ncnc2c(-c3c(C)cc(C)cc3C)cn(C)c12 [Compound 5, N-Butyl-N-Ethyl-5-methyl-7-(2,4,6trimethylphenyl)-5H-pyrrolo[3,2-d]pyrimidin-4-amine] | 126 to 128 °C | 500 nM
4 | CCCN(CCC)c1ncnc2c(-c3c(C)cc(C)cc3C)cn(C)c12 [Compound 2, N,N-Dipropyl-5-methyl-7-(2,4,6trimethylphenyl)-5H-pyrrolo[3,2-d]pyrimidin-4-amine] | 116 to 118 °C | 
5 | Cc1cc(C)c(-c2cn(C)c3c(N4CCCCCC4)ncnc23)c(C)c1 [Compound 7, 4-(1-Homopiperidinyl)-5-methyl-7-(2,4,6-trimethylphenyl)-5H-pyrrolo[3,2-d]pyrimidine] | 140 to 142 °C | 
